From publication PMC12297533 (Scientific Reports, 2025) come the findings set out here.

Read-outs that look alike come from different tables or passages of the source. Bounds are passed on as bounds.

For data set [1], the target named is T1, COX-1 (Homo sapiens, UniProt P23219).
T1 construct: purchased Cayman No.548
In words: In vitro COX-1 enzyme inhibitory assay (Cayman kit). It counts as biochemical. To be noted: mean ± SD, n = 3. The protocol: (§1) The ability to inhibit COX-1 and COX-2 enzymes was evaluated as previously reported[35],[36], using COX-1 Cayman human enzyme inhibitory assay kit (No.548, USA), COX-2 Cayman human enzyme inhibitory assay kit (No.547, USA) and Tecan Spark reader. […] The % Relative Inhibition was calculated as follows: [drawing 1]

Data set [2] concerns the target AChE (Homo sapiens, UniProt P22303). Put plainly: biochemical. To be noted: for Inhibitory activity against AChE: concentrations up to 100 µM.
The target in data set [3] is T2, COX-2 (Homo sapiens, UniProt P35354).
T2 construct: purchased Cayman No.547
T2 sequence (P35354 18-604): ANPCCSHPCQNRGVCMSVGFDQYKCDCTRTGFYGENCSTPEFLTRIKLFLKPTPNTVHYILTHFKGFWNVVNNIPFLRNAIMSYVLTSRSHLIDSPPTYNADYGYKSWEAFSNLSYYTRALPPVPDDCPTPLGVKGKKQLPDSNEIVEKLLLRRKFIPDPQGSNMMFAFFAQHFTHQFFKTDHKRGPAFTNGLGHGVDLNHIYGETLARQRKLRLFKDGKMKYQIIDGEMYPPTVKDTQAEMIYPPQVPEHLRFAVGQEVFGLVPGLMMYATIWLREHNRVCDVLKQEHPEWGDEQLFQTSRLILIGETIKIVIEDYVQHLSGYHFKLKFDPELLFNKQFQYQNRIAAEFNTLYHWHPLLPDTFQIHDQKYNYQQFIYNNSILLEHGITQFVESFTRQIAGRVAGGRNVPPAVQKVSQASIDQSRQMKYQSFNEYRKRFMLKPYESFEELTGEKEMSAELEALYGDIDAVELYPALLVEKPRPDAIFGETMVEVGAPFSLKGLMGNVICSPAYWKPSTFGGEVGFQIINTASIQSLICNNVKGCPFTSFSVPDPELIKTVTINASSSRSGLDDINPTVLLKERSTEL
Put plainly: In vitro COX-2 enzyme inhibitory assay (Cayman kit). Type of data set: biochemical. To be noted: for IC50: mean ± SD, n = 3. The protocol:
as §1

Data set [4] deals with SH-SY5Y cells. Put plainly: Protection against H2O2 induced-neurotoxicity. Type of data set: cell-based, human. The settings on record: 150 μM H2O2; for Neuroprotective activity against H2O2: 6.25, 12.5, 25 μM. Here is the method:
H2O2 concentration that caused 50% reduction in cell viability was evaluated as previously reported. Then the cultured cells (2 × 10^4 cells/well) were incubated with test samples (at non-cytotoxic concentrations: 6.25, 12.5, 25 μM) or catechin as a positive control (at non-cytotoxic concentrations: 6.25, 12.5, 25, 50, 100 μM). Lastly, the WST-1 reagent was used to evaluate the cell viability as reported.

In data set [5] the test system is SH-SY5Y cells. In words: Determination of non-cytotoxic concentrations (WST-1 cell viability). It counts as cell-based. To be noted: for Non-cytotoxic concentration on SH-SY5Y cells: human; for Concentration showing cytotoxic effect on SH-SY5Y cells: tested 6.25-200 μM. Here is the method:
In this assay, the non-toxic concentrations of the tested samples to SH-SY5Y cells, along with catechin[58] and epicatechin-3-gallate[59] as a positive controls were used for the evaluation of the neuroprotective activity. […]. Cell viability was then assessed using a previously described method.

The test system of data set [6] is SH-SY5Y cells. Put plainly: Protection against Aβ1-42 induced-neurotoxicity. The settings on record: only at 50 and 100 μM; Aβ1-42 25 μM. Type of data set: cell-based, human. Here is the method: Finally, evaluation of cell viability was conducted.
[7] abbreviates: mean ± SD, n = 3, read-out: AChE inhibition IC50.

Chain of AChE (P22303 32-614): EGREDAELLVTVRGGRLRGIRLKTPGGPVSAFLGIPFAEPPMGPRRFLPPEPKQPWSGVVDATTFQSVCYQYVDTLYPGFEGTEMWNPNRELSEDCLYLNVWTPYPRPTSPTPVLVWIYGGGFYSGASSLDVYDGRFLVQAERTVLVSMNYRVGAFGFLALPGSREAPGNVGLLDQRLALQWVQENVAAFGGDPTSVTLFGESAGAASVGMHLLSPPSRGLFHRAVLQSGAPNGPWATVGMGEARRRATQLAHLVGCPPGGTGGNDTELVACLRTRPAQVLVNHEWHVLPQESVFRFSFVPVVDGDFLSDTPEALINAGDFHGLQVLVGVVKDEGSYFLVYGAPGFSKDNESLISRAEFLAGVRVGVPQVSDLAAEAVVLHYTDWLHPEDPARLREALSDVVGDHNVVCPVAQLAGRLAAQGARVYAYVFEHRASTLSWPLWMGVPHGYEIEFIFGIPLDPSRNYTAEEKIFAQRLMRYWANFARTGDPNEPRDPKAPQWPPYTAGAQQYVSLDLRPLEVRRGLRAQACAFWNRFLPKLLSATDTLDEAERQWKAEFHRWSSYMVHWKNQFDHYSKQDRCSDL
T1 sequence (P23219 24-599): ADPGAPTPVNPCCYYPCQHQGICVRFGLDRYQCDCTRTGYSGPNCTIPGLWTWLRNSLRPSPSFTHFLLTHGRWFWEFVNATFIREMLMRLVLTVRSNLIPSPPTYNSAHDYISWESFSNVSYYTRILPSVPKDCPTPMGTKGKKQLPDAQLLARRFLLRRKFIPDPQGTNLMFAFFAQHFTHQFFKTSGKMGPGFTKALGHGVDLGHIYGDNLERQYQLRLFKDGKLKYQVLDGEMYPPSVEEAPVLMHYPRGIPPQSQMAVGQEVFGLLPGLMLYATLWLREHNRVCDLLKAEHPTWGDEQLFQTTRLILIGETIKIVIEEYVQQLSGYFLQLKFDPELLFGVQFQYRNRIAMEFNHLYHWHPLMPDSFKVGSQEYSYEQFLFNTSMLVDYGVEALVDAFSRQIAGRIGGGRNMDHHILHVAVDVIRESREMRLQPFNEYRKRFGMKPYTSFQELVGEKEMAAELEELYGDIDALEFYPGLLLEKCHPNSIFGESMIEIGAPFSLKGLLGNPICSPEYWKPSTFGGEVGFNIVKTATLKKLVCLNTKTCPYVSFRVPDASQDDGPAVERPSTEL

As a reminder, the IC50 is the concentration that inhibits the measured activity by half. Turning to `CC1=CCC(C(C)(O)CCC(O)C(C)(C)O)CC1` (stereo not drawn) [Metabolite 2, 10β,11-dihydroxy-α-bisabolol], the IC50 in data set [1] came to 71 ± 4.4 µM; in data set [2] (setting [7]), 12.9 µM; in data set [3], 17.3 ± 0.66 µM. Besides, in data set [3], the “COX-2 selective index S.I = IC50 COX-1/IC50 COX-2” value came out at 4.093.
In general, inhibition refers to the share of the control response that was lost under treatment. As for `CC(C)=CCC[C@](C)(O)[C@@H]1CC=C(C(=O)O)CC1` [Metabolite 3, Hamanasic acid A], the half-inhibitory concentration (IC50) in data set [1] was 28.1 ± 1.74 µM; in data set [2] (setting [7]) it was > 100 µM; in data set [3], 6.45 ± 0.24 µM. 100 µM produced 20% inhibition in data set [2] (at 100 µM). Besides, the “COX-2 selective index S.I = IC50 COX-1/IC50 COX-2” value in data set [3] was 4.362. The “Neuroprotective activity against H2O2” value in data set [4] is given as “didn’t show any neuroprotective activity”.
Take `CC(C)=CCCC(C)(O)C1CCC(C)CC1` (stereo not drawn) [Metabolite 4, 2,3-dihydro-α-bisabolol]: the IC50 in data set [1] was 35.3 ± 2.18 µM; in data set [2] (setting [7]), > 100 µM; in data set [3], 4.11 ± 0.15 µM. In data set [2], the “Inhibitory activity against AChE” value was “no inhibitory activity”. Further, the “COX-2 selective index S.I = IC50 COX-1/IC50 COX-2” value in data set [3] came to 8.598.
Turning to `COC(=O)C1=CCC(C(C)CCC2OC2(C)C)CC1` (stereo not drawn) [Metabolite 5, 7-dehydroxy-10,11-epoxy-3-methylcarboxy-α-bisabolol], the values for the IC50 in data set [1], in data set [2] and in data set [3] were 16.8 ± 1.04 µM, > 100 µM and 2.51 ± 0.09 µM, respectively. In data set [2], the “Inhibitory activity against AChE” value is listed as “no inhibitory activity”. Further, the “COX-2 selective index S.I = IC50 COX-1/IC50 COX-2” value in data set [3] stood at 6.711. Further, the “Neuroprotective activity against H2O2” value in data set [4] is given as “didn’t show any neuroprotective activity”.
For the compound `CC(C)(O)C(O)CCC(C)(O)C1CC=C(CO)CC1` (stereo not drawn) [Metabolite 6, 10β,11,15-trihydroxy-α-bisabolol], the IC50 in data set [1] is 67.8 ± 2.28 µM; in data set [2] (setting [7]), > 100 µM; in data set [3] it was 5.39 ± 0.18 µM. Moreover, the “Inhibitory activity against AChE” value in data set [2] was “no inhibitory activity”. Moreover, in data set [3], the “COX-2 selective index S.I = IC50 COX-1/IC50 COX-2” value came to 12.58. The “Non-cytotoxic concentration on SH-SY5Y cells” value in data set [5] is ≤ 12.5 µM.
`O.Oc1cc(O)c2c(c1)O[C@H](c1ccc(O)c(O)c1)[C@@H](O)C2` [catechin, reference compound]: in data set [4] (only at 50 and 100 μM), the “Neuroprotective effect against H2O2” value was “exhibited neuroprotective effects”. The “Concentration showing cytotoxic effect on SH-SY5Y cells” value in data set [5] came to 200 µM.
The compound `CC(C)=CCCC(C)(O)C1CC=C(C)CC1` (stereo not drawn) [α-Bisabolol, (-)-α-bisabolol, reference compound] yielded an IC50 in data set [1] of 20.1 ± 1.19 µM. In data set [2], the IC50 is > 100 µM and the “Inhibitory activity against AChE” value is on record as “no inhibitory activity”. In addition, in data set [3], the “COX-2 selective index S.I = IC50 COX-1/IC50 COX-2” value came to 6.889 and the IC50 came out at 2.92 ± 0.13 µM. Besides, the “Non-cytotoxic concentration on SH-SY5Y cells” value in data set [5] is ≤ 25 µM.
On to epicatechin-3-gallate, for which the “Neuroprotection against Aβ1-42” value in data set [6] is “exhibited neuroprotection”. Also, the “Concentration showing cytotoxic effect on SH-SY5Y cells” value in data set [5] was found to be 200 µM.
